For the experiment, the target named is recombinant B-RAF enzyme (Homo sapiens (Human), UniProt P15056). As to the kind of experiment: In vitro B-RAF Kinase Assay (HTRF), IC50 determination. Type of experiment: biochemical. The note with it: 6HIS-Mek1 substrate, 60 min at 23° C. As to the method: In vitro B-RAF Kinase Assay. To determine in vitro activities of recombinant B-RAF enzyme, a Homogeneous Time-Resolved Fluorescence (HTRF) assay was performed. […] Meanwhile, an Anti-6HIS-d2 antibody (Anti-6HIS-d2, Cisbio international) was added to detection system. When the two antibodies were close enough, energy, transfer was happened between Eu and d2, then activities of enzyme was determine by measuring fluorescence intensity (320 nm excitation, 665 nm emission).
Sequence of recombinant B-RAF enzyme (P15056 whole entry, species assumed): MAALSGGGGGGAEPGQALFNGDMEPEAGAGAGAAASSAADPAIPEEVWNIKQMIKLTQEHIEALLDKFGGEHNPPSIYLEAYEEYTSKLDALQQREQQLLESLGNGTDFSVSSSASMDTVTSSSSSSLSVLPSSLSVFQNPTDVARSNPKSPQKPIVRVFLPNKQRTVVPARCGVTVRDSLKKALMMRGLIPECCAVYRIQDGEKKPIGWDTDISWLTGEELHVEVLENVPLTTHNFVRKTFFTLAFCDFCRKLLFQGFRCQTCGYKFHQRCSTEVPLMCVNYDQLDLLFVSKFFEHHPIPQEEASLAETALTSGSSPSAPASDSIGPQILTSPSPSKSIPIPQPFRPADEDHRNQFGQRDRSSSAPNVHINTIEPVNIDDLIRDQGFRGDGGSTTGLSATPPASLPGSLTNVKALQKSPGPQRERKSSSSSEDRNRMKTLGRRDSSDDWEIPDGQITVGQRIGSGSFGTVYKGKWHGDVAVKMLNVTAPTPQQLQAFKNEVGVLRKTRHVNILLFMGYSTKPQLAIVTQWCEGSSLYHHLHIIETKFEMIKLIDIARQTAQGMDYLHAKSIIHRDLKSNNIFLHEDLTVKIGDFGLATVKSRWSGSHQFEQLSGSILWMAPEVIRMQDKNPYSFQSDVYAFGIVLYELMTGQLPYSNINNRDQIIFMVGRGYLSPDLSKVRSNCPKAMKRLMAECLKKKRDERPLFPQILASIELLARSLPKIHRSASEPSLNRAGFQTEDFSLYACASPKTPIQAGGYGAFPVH
IC50 determination. To evaluate in vitro potency of compounds against B-RAF enzyme, the IC50 values of compounds of this invention were determined. Compounds were 3-fold serially diluted with 100% DMSO from 1 mM, then 4 ml of compounds were transferred to 96 ml of reaction buffer (50 mM HEPES pH7.4, 10 mM MgCl2, 1 mM EGTA, 0.01% Tween-20, 0.005% BAS, 2 mM DTT). […] Then 2.5 ml of 4×ATP (2 mM) was added to the reaction system and initiated the reaction. The assay plate was incubated in an incubator for 60 min at 23° C., then the reaction was terminated by adding 5 ml of detection solution containing Eu3+ cryptate-labeled anti-phosphotyrosine PT66 antibody, and 5 ml of Anti-6HIS-d2 antibody. The plate was incubated for 1 h at 23° C. and the fluorescent signal was read with an EnVision multilable plate reader (PerkinElmer). IC50 values of compounds were generated using GraFit software (Version 6.0).

For the compound `CCCS(=O)(=O)Nc1ccc(F)c(Nc2ncccc2-c2ncnc3[nH]cnc23)c1F` [Example 1, N-(3-(3-(9H-purin-6-yl)pyridin-2-ylamino)-2,4-difluorophenyl)propane-1-sulfonamide], the IC50 (as a rule, the concentration that gives 50% inhibition) was less than 100 nM. With `CCCS(=O)(=O)Nc1ccc(F)c(Nc2ncccc2-c2ncnc3[nH]c(C)nc23)c1F` [Example 3, N-(2,4-difluoro-3-(3-(8-methyl-9H-purin-6-yl)pyridin-2-ylamino)phenyl)propane-1-sulfonamide] the figure was less than 500 nM; with `CCCS(=O)(=O)Nc1ccc(F)c(Nc2ncccc2-c2ncnc3[nH]cnc23)c1` [Example 4, N-(3-(3-(9H-purin-6-yl)pyridin-2-ylamino)-4-fluorophenyl)propane-1-sulfonamide], less than 100 nM; with `CCCS(=O)(=O)Nc1ccc(Cl)c(Nc2ncccc2-c2ncnc3[nH]cnc23)c1` [Example 5, N-(3-(3-(9H-purin-6-yl)pyridin-2-ylamino)-4-chlorophenyl)propane-1-sulfonamide], less than 100 nM. `CCCS(=O)(=O)Nc1ccc(C)c(Nc2ncccc2-c2ncnc3[nH]cnc23)c1` [Example 6, N-(3-(3-(9H-purin-6-yl)pyridin-2-ylamino)-4-methylphenyl)propane-1-sulfonamide]: the IC50 was less than 100 nM.

For the compound `CCCS(=O)(=O)Nc1ccc(Cl)c(Nc2ncccc2-c2ncnc3[nH]cnc23)c1F` [Example 7, N-(3-(3-(9H-purin-6-yl)pyridin-2-ylamino)-4-chloro-2-fluorophenyl)propane-1-sulfonamide], the IC50 is less than 100 nM. As for `CCCS(=O)(=O)Nc1ccc(F)c(Nc2ncccc2-c2ncnc3[nH]cnc23)c1Cl` [Example 8, N-(3-(3-(9H-purin-6-yl)pyridin-2-ylamino)-2-chloro-4-fluorophenyl)propane-1-sulfonamide], the figure is less than 100 nM. With `O=S(=O)(CCCF)Nc1ccc(Cl)c(Nc2ncccc2-c2ncnc3[nH]cnc23)c1F` [Example 9, N-(3-(3-(9H-purin-6-yl)pyridin-2-ylamino)-4-chloro-2-fluorophenyl)-3-fluoropropane-1-sulfonamide], the IC50 is less than 100 nM.

With `O=S(=O)(CCCF)Nc1ccc(F)c(Nc2ncccc2-c2ncnc3[nH]cnc23)c1F` [Example 10, N-(3-(3-(9H-purin-6-yl)pyridin-2-ylamino)-2,4-difluorophenyl)-3-fluoropropane-1-sulfonamide], the IC50 is less than 100 nM. In the case of `O=S(=O)(CCl)Nc1ccc(F)c(Nc2ncccc2-c2ncnc3[nH]cnc23)c1F` [Example 11, N-(3-(3-(9H-purin-6-yl)pyridin-2-ylamino)-2,4-difluorophenyl)-1-chloromethanesulfonamide], the IC50 was less than 500 nM. As to `CCS(=O)(=O)Nc1ccc(F)c(Nc2ncccc2-c2ncnc3[nH]cnc23)c1F` [Example 12, N-(3-(3-(9H-purin-6-yl)pyridin-2-ylamino)-2,4-difluorophenyl)ethanesulfonamide], the IC50 was less than 1000 nM. With `CS(=O)(=O)Nc1ccc(F)c(Nc2ncccc2-c2ncnc3[nH]cnc23)c1F` [Example 13, N-(3-(3-(9H-purin-6-yl)pyridin-2-ylamino)-2,4-difluorophenyl)methanesulfonamide], the IC50 is less than 500 nM.

For the compound `O=S(=O)(Nc1ccc(F)c(Nc2ncccc2-c2ncnc3[nH]cnc23)c1F)c1ccc(F)c(F)c1` [Example 14, N-(3-(3-(9H-purin-6-yl)pyridin-2-ylamino)-2,4-difluorophenyl)-3,4-difluorobenzenesulfonamide], the IC50 is less than 500 nM. With `O=S(=O)(Nc1ccc(F)c(Nc2ncccc2-c2ncnc3[nH]cnc23)c1F)c1ccccc1` [Example 15, N-(3-(3-(9H-purin-6-yl)pyridin-2-ylamino)-2,4-difluorophenyl)benzenesulfonamide] the figure was less than 100 nM; with `O=S(=O)(Nc1ccc(F)c(Nc2ncccc2-c2ncnc3[nH]cnc23)c1F)c1ccc(Cl)cc1` [Example 17, N-(3-(3-(9H-purin-6-yl)pyridin-2-ylamino)-2,4-difluorophenyl)-4-chlorobenzenesulfonamide], less than 500 nM; with `O=S(=O)(CCC(F)(F)F)Nc1ccc(F)c(Nc2ncccc2-c2ncnc3[nH]cnc23)c1F` [Example 18, N-(3-(3-(9H-purin-6-yl)pyridin-2-ylamino)-2,4-difluorophenyl)-3,3,3-trifluoropropane-1-sulfon amide], less than 100 nM. With `O=S(=O)(CC(F)(F)F)Nc1ccc(F)c(Nc2ncccc2-c2ncnc3[nH]cnc23)c1F` [Example 19, N-(3-(3-(9H-purin-6-yl)pyridin-2-ylamino)-2,4-difluorophenyl)-2,2,2-trifluoromethanesulfonamide], the IC50 was less than 100 nM.

Turning to `C=CS(=O)(=O)Nc1ccc(F)c(Nc2ncccc2-c2ncnc3[nH]cnc23)c1F` [Example 20, N-(3-(3-(9H-purin-6-yl)pyridin-2-ylamino)-2,4-difluorophenyl)ethenesulfonamide], the IC50 is less than 500 nM. With `O=S(=O)(Nc1ccc(F)c(Nc2ncccc2-c2ncnc3[nH]cnc23)c1F)C1CC1c1ccccc1` (centres unmarked) [Example 21, N-(3-(3-(9H-purin-6-yl)pyridin-2-ylamino)-2,4-difluorophenyl)-2-phenylcyclopropane-1-sulfonamide] the figure was less than 500 nM. With `COc1ccc(C2CC2S(=O)(=O)Nc2ccc(F)c(Nc3ncccc3-c3ncnc4[nH]cnc34)c2F)cc1` (centres unmarked) [Example 22, N-(3-(3-(9H-purin-6-yl)pyridin-2-ylamino)-2,4-difluorophenyl)-2-(4-methoxyphenyl)cyclopropane-1-sulfonamide] the figure was less than 1000 nM. For `O=S(=O)(Nc1ccc(F)c(Nc2ncccc2-c2ncnc3[nH]cnc23)c1F)c1ccc(F)cc1` [Example 23, N-(3-(3-(9H-purin-6-yl)pyridin-2-ylamino)-2,4-difluorophenyl)-4-fluorobenzenesulfonamide], the IC50 was less than 1000 nM. As for `O=S(=O)(Nc1ccc(F)c(Nc2ncccc2-c2ncnc3[nH]cnc23)c1F)c1ccsc1` [Example 24, N-(3-(3-(9H-purin-6-yl)pyridin-2-ylamino)-2,4-difluorophenyl)thiophene-3-sulfonamide], the figure is less than 100 nM; as for `CCCS(=O)(=O)Nc1ccc(F)c(Nc2ncccc2-c2ncnc3[nH]ncc23)c1F` [Example 25, N-(3-(3-(1H-pyrazolo[3,4-d]pyrimidin-4-yl)pyridin-2-ylamino)-2,4-difluorophenyl)propane-1-sulfonamide], less than 500 nM. With `CCCS(=O)(=O)Nc1ccc(F)c(Nc2ncccc2-c2ncnc3[nH]ccc23)c1F` [Example 26, N-(3-(3-(7H-pyrrolo[2,3-d]pyrimidin-4-yl)pyridin-2-ylamino)-2,4-difluorophenyl)propane-1-sulfonamide] the figure was less than 500 nM. As for `CCCS(=O)(=O)Nc1ccc(C)c(Nc2ccccc2-c2ncnc3[nH]cnc23)c1` [Example 27, N-(3-(2-(9H-purin-6-yl)phenylamino)-4-methylphenyl)propane-1-sulfonamide], the figure is less than 100 nM; as for `CCCS(=O)(=O)Nc1ccc(F)c(Nc2ccccc2-c2ncnc3[nH]cnc23)c1F` [Example 28, N-(3-(2-(9H-purin-6-yl)phenylamino)-2,4-difluorophenyl)propane-1-sulfonamide], less than 1000 nM.

For the origin of these results see patent publication US9550781B2, “Kinase modulating compounds, compositions containing the same and use thereof” (CENTAURUS BIOPHARMA CO., LTD., priority 2011, dated 2017).
